Reference: patent publication US12390447B2, “Sirtuin 6 protein deacylase (SIRT6) activators” (Wisconsin Alumni Research Foundation, priority 2019, dated 2025)

Key:
Assay type in all cases: biochemical
[1] = molecular target: T1, SIRT1 (Homo sapiens, UniProt Q96EB6); assay: SIRT1 deacetylase activity against H3K9ac peptide; details: 400 μM compound
T1 sequence (Q96EB6 1-747): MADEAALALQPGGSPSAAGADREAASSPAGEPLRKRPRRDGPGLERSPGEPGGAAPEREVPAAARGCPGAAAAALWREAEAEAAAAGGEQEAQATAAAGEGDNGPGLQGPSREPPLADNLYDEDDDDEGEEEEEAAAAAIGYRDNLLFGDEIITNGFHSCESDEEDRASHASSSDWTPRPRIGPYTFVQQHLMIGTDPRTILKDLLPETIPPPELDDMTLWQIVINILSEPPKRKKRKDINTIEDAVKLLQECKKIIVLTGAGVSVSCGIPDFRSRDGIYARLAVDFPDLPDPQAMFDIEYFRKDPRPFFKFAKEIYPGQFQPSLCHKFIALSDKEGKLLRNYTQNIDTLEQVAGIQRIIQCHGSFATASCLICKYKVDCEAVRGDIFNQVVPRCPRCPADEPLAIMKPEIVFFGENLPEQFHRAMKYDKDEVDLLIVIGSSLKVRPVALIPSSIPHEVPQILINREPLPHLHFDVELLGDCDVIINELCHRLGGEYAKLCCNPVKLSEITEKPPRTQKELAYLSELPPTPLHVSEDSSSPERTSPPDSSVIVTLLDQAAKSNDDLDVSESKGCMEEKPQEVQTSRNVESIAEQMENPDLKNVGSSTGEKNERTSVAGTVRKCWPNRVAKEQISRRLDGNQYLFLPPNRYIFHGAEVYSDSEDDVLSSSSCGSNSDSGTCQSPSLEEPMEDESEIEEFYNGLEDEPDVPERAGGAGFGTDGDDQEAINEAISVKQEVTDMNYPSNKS
Experimental: FIGS. 1A-F illustrate the identification of novel SIRT6 activators. (1A) Compound libraries BML-2803, BML-2800, and an additional set of 178 molecules were screened at 100 μM for their ability to stimulate SIRT6 (1 μM) deacetylation of H3K9ac peptide (20 μM) in the presence of 0.5 mM NAD^+. SIRT6 activity was measured by HPLC quantification of H3K9ac and deacetylated product (inset) and fold activations relative to DMSO control were determined and compiled. (1B) Fold-activation of SIRT6 (1 μM) determined in the presence of either 0-400 μM CL4, 0-150 μM TTNPB, 0-100 μM Lysophosphatidic acid (LPA), or 0-200 μM linoleoylglycine (LGly). Maximum fold-activation and EC50 determined by sigmoidal curve fit. […] Constants Km, H3K9ac and kcat were determined by fitting data to Michaelis-Menten equation. (1D) Fold-activations of SIRT1 (0.1 μM), SIRT2 (0.2 μM), SIRT3 (1 μM), SIRT5 (2 μM), and SIRT6 (1 μM) determined in the presence of CL4 (100 μM), TTNPB (50 μM), and LPA (50 μM) relative to DMSO control against 20 μM H3K9ac peptide and 0.5 mM NAD^+. […]
All sirtuin deacylation assays were carried out at 37° C. in 20 mM potassium phosphate pH 7.5 with 0.5 mM NAD^+, 10% DMSO, and 20 μM H3K9ac or H3K9myr peptides, unless otherwise noted in legend, and quenched by the addition of 2% TFA final. […] The product and substrate peaks were quantified and ratio of these allowed for quantification of product formation. […]

[2] = molecular target: SIRT6 K81A (Homo sapiens, UniProt Q8N6T7, K81A); assay: Steady-state deacetylation rate of SIRT6 K81A with or without CL5D; details: SIRT6 K81A 1 μM, H3K9ac 40 μM, CL5D 50 μM, 25 minutes
Experimental: All sirtuin deacylation assays were carried out at 37° C. in 20 mM potassium phosphate pH 7.5 with 0.5 mM NAD^+, 10% DMSO, and 20 μM H3K9ac or H3K9myr peptides, unless otherwise noted in legend, and quenched by the addition of 2% TFA final. Steady-state reactions were constrained to less than 20% substrate turnover to prevent product inhibition. A variety of times were required to monitor SIRT6 deacetylation (2-60 minutes) under this restraint given the ability to strongly activate catalysis. In these cases, specific activities were determined and either reported as is or as fold-activation of specific activity. Deacylation reactions were analyzed by reversed phase high-performance liquid chromatography on a Kinetex C18 column (100 Å, 100×4.6 mm, 2.6 μm, Phenomenex) by monitoring the formation of the deacylated product at 214 nm. Deacetylation reactions were analyzed using a gradient of 33-100% B (30% acetonitrile with 0.05% TFA) in 8 min at 1.6 mL min^−1. Demyristoylation reactions were analyzed using a gradient of 3 to 100% B (acetonitrile with 0.05% TFA) in 10 min at 1.6 mL min^−1. The product and substrate peaks were quantified and ratio of these allowed for quantification of product formation. Three independent experiments were performed for each condition with averages being plotted and error bars representing the standard deviation of these replicates. […]

[3] = molecular target: SIRT6 (Homo sapiens, UniProt Q8N6T7); assay: Burst kinetic analysis of SIRT6 deacetylation; details: SIRT6 10 μM, 400 μM H3K9ac peptide, 500 μM NAD+
Experimental: SIRT6 (10 μM) was mixed with either H3K9ac peptide (400 μM) or NAD^+ (500 μM) in 20 mM potassium phosphate pH 7.5 and preheated to 37° C. for 3 minutes. Reactions were initiated either through the addition of NAD^+ (500 μM final) or H3K9ac peptide (400 μM final) and quenched after 10-1800 seconds by the addition of 3% TFA final. For each experiment, a control reaction in which H3K9ac peptide was excluded was collected at each timepoint and subtracted from corresponding experimental reactions to control for NAD^+ degradation. Nicotinamide and deacetylated peptide product were quantified by reverse-phase HPLC as described in the rapid quench flow kinetics methods section.
To further dissect the catalytic step(s) in kcat/Km,H3K9ac that are enhanced in the presence of activator, reaction conditions were set up to identify the existence of product ‘bursts’ during the first catalytic turnover. High concentrations of SIRT6 (10 μM) in the presence of 400 μM H3K9ac peptide were rapidly mixed with 500 μM NAD^+, and after an acid quench at different times, the products nicotinamide and deacetylated peptide were resolved and quantified by HPLC. […] The order of substrate mixing had no effect on the product curves.

SIRT6 K81A, sequence (Q8N6T7 whole entry K81A): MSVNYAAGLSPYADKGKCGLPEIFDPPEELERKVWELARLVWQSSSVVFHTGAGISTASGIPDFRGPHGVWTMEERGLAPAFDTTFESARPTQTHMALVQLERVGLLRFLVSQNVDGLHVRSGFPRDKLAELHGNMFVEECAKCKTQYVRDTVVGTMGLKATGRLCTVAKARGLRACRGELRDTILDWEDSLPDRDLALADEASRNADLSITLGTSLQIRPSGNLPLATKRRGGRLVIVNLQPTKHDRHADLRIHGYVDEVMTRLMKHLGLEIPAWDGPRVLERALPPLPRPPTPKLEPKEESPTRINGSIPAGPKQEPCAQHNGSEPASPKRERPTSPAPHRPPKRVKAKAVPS
SIRT6, sequence (Q8N6T7 whole entry): as the sequence (Q8N6T7 whole entry K81A) above, with A81K counted along it

SMILES: O=C(O)c1ccc2c(c1)C(=O)N(c1ccc(N(C(=O)c3c(Cl)cc(Cl)cc3Cl)C(=O)c3c(Cl)cc(Cl)cc3Cl)c(Cl)c1)C2=O [CL-5D, 2-(3-chloro-4-(2,4,6-trichloro-N-(2,4,6-trichlorobenzoyl)benzamido)phenyl)-1,3-dioxoisoindoline-5-carboxylic acid]
- SIRT1 deacetylase activity at high activator concentration [1]: inhibited
- RateCL5D [2]: 0.125 ± 0.003 µM/min
- rate enhancement in the presence of CL5D [3]: 1.8 fold
